Test results: patent US10981932B2, “Macrocyclic indole derivatives” (Bayer Aktiengesellschaft, priority 2016, dated 2021)
Counter-ions that a name gives are not always drawn. Like-named read-outs stand apart in the source and are kept apart here.

How the values were obtained:
[1] = test system: NCI-H1703; test: Anti-proliferative effect (CellTiter-Glo, 72 h), NCI-H1703; assay type: cell-based; settings: Homo sapiens, NCI-H1703 cells, median, read-out: IC50 antiproliferation assay NCI-H1703 [M] (median)
Procedure: (§1) The impact of compounds on the proliferation of different cell lines was assessed using the CellTiter-Glo® Luminescent Cell Viability reagent from Promega (G7573). Of note, SUDHL10 and SUDHL5 (DLBCL), NCI-H929 (Multiple Myeloma), A2780 (ovarian carcinoma) as well as MV-4-11(AML) cells are sensitive to MCL-1 inhibition.
(§2) In parallel, cells were plated in a reference (day 0) plate for time zero determination.
(§3) Rim wells were excluded. The cells were incubated for 72 h hours in a humidified incubator at 37° C. The day 0 plate was measured by adding 30 μl/well of CTG solution (CellTiter-Glo® Luminescent Cell Viability reagent, Promega G7573) to time zero wells in the reference plate followed by a 10 minutes incubation and luminescence reading at 0.1 ms, using the PHERAstar FS microplate reader (BMG Labtech).
(§4) After 72 h incubation, the treated plates were measured in the same way as the day 0 plate mentioned above.

[2] = biological target: T1, BCL-2 (Homo sapiens, UniProt P10415); test: Protein-protein interaction assay BCL-2/Bad BH3 peptide (BCL-2 assay), TR-FRET; assay type: binding; settings: His-BCL-2 / Bad BH3-derived peptide, median
T1 construct: BCL-2 (amino acids 1-211, C-terminal fused to a hexahistidine (6×His) tag); purchased BPS Bioscience (San Diego, Calif., USA); host or cells: E. coli
T1 sequence (P10415 1-211): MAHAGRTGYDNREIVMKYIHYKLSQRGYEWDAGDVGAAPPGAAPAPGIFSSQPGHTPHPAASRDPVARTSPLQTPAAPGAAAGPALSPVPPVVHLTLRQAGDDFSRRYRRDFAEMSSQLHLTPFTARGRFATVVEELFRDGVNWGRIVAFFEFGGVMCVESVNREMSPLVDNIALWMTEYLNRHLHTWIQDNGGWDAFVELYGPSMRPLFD
Procedure: Protein-Protein Interaction Assay: BCL-2/Bad BH3 Peptide (BCL-2 Assay)
The dose-dependent inhibition by the compounds described in this invention of the interaction between BCL-2 and the BH3 domain of Bad (both human) was determined using a steady state binding competition assay with time-resolved fluorescence energy transfer (TR-FRET) readout. For that purpose BCL-2 (amino acids 1-211, C-terminal fused to a hexahistidine (6×His) tag and a synthetic Bad BH3-derived peptide of sequence Biotin-PEG2-PEG2-NLWAAQRYGRELRR-Nle-SDEFVDSFKK-amide (SEQ ID NO: 2) served as protein receptor and tracer ligand respectively. The recombinant BCL-2 protein (expressed in E. coli) was purchased from BPS Bioscience (San Diego, Calif., USA). The Bad BH3-derived peptide can be obtained from e.g. Biosyntan (Berlin, Germany).
In the assay 11 different concentrations of each compound (0.1 nM, 0.33 nM, 1.1 nM, 3.8 nM. 13 nM, 44 nM, 0.15 μM, 0.51 μM, 1.7 μM, 5.9 μM and 20 μM) were typically measured as duplicates in the same microtiter plate. For that, 100-fold concentrated DMSO solutions were prepared by serial dilutions (1:3.4) of a 2 mM stock solution in a clear, 384-well microtiter plate (Greiner Bio-One, Frickenhausen, Germany). From there, 50 nl were transferred in a dark test plate (Greiner Bio-One. Frickenhausen, Germany). The assay was initiated by addition of 2 μl of a 2,5-fold concentrated His-BCL-2 solution (usually for a 1 nM end concentration in 5 μl reaction volume) in aqueous assay buffer [50 mM Tris/HCl pH 7, 100 mM sodium chloride (NaCl), 50 mM potassium fluoride (KF), 0.005% Tween-20, 2 mM DTT, 0.1% bovine gamma globulin (BGG)] to the compounds in the assay plate. This was followed by a 10-minute incubation step at 22° C. for pre-equilibration of the putative complex between His-BCL-2 and the compounds.
The mixture was incubated in the dark for one hour at 22° C. and then overnight at 4° C. The formation of BCL-2/Bad complexes was determined by measuring the resonance energy transfer of the anti-His-Eu-cryptate antibody to the streptavidin-XL665 present in the reaction. For that purpose, the fluorescence emission at 620 nm and 665 nm after excitation at 330-350 nm was measured in a TR-FRET measuring instrument, for instance a Rubystar or a Pherastar (both from BMG Lab Technologies. Offenburg, Germany) or a Viewlux (Perkin-Elmer). The ratio of the emission at 665 nm and at 622 nm was used as indicator of the amount of BCL-2/Bad complexes present.
The resulting data (ratio) were normalized, taking 0% inhibition as the mean value of control measurements (usually 32 data points) where all reagents were included. In this case 50 nl DMSO were used instead of compounds. A 100% inhibition corresponded to the mean value of control measurements (usually 32 data points) where all reagents except BCL-2 were included. IC50 values were determined by regression analysis based on a 4 parameter equation (minimum, maximum, IC50, Hill; Y=Max+(Min−Max)/(1+(X/IC50)^Hill) using the Screener Software (Genedata).

[3] = test system: SUDHL10; test: Anti-proliferative effect (CellTiter-Glo, 72 h), SUDHL10; assay type: cell-based; settings: SUDHL10 cells, antiproliferation, 72 h incubation, median, read-out: Antiproli SUDHL10 [M] (median)
Procedure, shortened: (§5)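 A time zero plate, read with CellTiter-Glo shortly after seeding, served as baseline; compound-treated plates were incubated 72 h at 37 °C and then read identically by luminescence.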

[4] = test system: MV-4-11; test: Anti-proliferative effect (CellTiter-Glo, 72 h), MV-4-11; assay type: cell-based; settings: MV-4-11 cells, median, read-out: IC50 antiproliferation assay MV-4-11 [M] (median)
Procedure, shortened: as §5

[5] = test system: OPM2; test: Anti-proliferative effect (CellTiter-Glo, 72 h), OPM2; assay type: cell-based; settings: OPM2 cells, median, read-out: IC50 antiproliferation assay OPM2 [M] (median)
Procedure, shortened: as §5

[6] = test system: SK-MEL-2; test: Anti-proliferative effect (CellTiter-Glo, 72 h), SK-MEL-2; assay type: cell-based; settings: Homo sapiens, SK-MEL-2 cells, median, read-out: IC50 antiproliferation assay SK-MEL-2 [M] (median)
Procedure: Assessment of the Anti-Proliferative Effect of Compounds in Different Cell Lines
as §1, §2, §3, §4

IC50 [1]	IC50 [2]	IC50 [3]	IC50 ([4]; Homo sapiens, MV4-11, 72 h)	IC50 [6]	IC50 ([3]; Homo sapiens, SU-DHL10, 72 h)	IC50 [4]	Compound	IC50 [5]	IC50 ([5]; Homo sapiens, OPM-2, 72 h)
1.1e-05 M	> 20 µM	1.56e-06 M	3.52e-06 M	> 3.3e-05 M			CN1CCCn2c(C(=O)O)c(CCCOc3cccc4ccccc34)c3cccc(c32)-c2c(COc3ccc(N4CCN(S(=O)(=O)N(C)C)CC4)cc3)nn(C)c2C1 (single isomer, unassigned; enantiomer 1) [Example 1-15, (+)-11-({4-[4-(dimethylsulfamoyl)piperazin-1-yl]phenoxy}methyl)-7,9-dimethyl-1-[3-(naphthalen-1-yloxy)propyl]-4,5,6,7,8,9-hexahydropyrazolo[3′,4′:7,8][1,5]diazecino[9,10,1-hi]indole-2-carboxylic Acid (Enantiomer 1)]	1.91e-06 M	
6.53e-06 M	> 20 µM	4.25e-06 M	4.3e-06 M	1.17e-05 M			CCc1c2c(nn1C)CN(C)CCCn1c(C(=O)O)c(CCCOc3cccc4ccccc34)c3ccc(C)c-2c31 (single isomer, unassigned; enantiomer 1) [Example 145, 11-Ethyl-7,10,12-trimethyl-1-[3-(1-naphthyloxy)propyl]-4,5,6,7,8,10-hexahydropyrazolo[3′,4′:7,8][1,5]diazecino[9,10,1-hi]indole-2-carboxylic acid-N-ethylethanamine Salt (Enantiomer 1)]		3.22e-06 M
9.36e-06 M	> 20 µM		9.73e-07 M	2.67e-05 M	5.87e-06 M		CCc1c2c(nn1C)COCCCCn1c(C(=O)O)c(CCCOc3cccc4ccccc34)c3cccc-2c31 (single isomer, unassigned; enantiomer 1) [Example 148, 3-Ethyl-2-methyl-7-[3-(1-naphthyloxy)propyl]-2,10,11,12,13,15-hexahydropyrazolo[4′,3′:9,10][1,6]oxazacycloundecino[8,7,6-hi]indole-8-carboxylic acid-N-ethylethanamine Salt (Enantiomer 1)]		2.74e-06 M
6.84e-06 M	> 20 µM		1.36e-06 M	1.84e-05 M	4.11e-06 M		CCc1c2c(nn1C)COCCCCn1c(C(=O)O)c(CCCOc3cccc4ccccc34)c3ccc(C)c-2c31 (single isomer, unassigned; enantiomer 1) [Example 154, 3-Ethyl-2,4-dimethyl-7-[3-(1-naphthyloxy)propyl]-2,10,11,12,13,15-hexahydropyrazolo[4′,3′:9,10][1,6]oxazacycloundecino[8,7,6-hi]indole-8-carboxylic acid-N-ethylethanamine Salt (Enantiomer 1)]		2e-06 M
5.52e-06 M	> 20 µM	1.35e-06 M		1.12e-05 M		2.29e-06 M	Cn1nc(COc2ccc(N3CCN(S(C)(=O)=O)CC3)cc2)c2c1COCCCCn1c(C(=O)O)c(CCCOc3cccc4ccccc34)c3cccc-2c31 (single isomer, unassigned; enantiomer 2) [Example 1-10, 1-methyl-3-({4-[4-(methylsulfonyl)piperazin-1-yl]phenoxy}methyl)-7-[3-(naphthalen-1-yloxy)propyl]-1,10,11,12,13,15-hexahydropyrazolo[4′,3′:9,10][1,6]oxazacycloundecino[8,7,6-hi]indole-8-carboxylic acid (enantiomer 2)]	2.81e-06 M	
2.67e-06 M	> 20 µM	1.38e-06 M		4.96e-06 M		1.35e-06 M	Cn1nc(COc2ccc(N3CCN(S(=O)(=O)C4CC4)CC3)cc2)c2c1COCCCCn1c(C(=O)O)c(CCCOc3cccc4ccccc34)c3cccc-2c31 (single isomer, unassigned; enantiomer 2) [Example 1-13, 3-({4-[4-(cyclopropylsulfonyl)piperazin-1-yl]phenoxy}methyl)-1-methyl-7-[3-(naphthalen-1-yloxy)propyl]-1,10,11,12,13,15-hexahydropyrazolo[4′,3′:9,10][1,6]oxazacycloundecino[8,7,6-hi]indole-8-carboxylic Acid (Enantiomer 2)]	6.34e-07 M	
